According to the kinase profiling compilation of Christmann-Franck et al. (2016):
Values belong to the compound of their own block, whether it stands above or below them.

Legend:
[1] = molecular target: CHEK1 (human) (UniProt O14757); experiment: Caliper, Mobility shift assay off-chip
[2] = molecular target: MAP4K2 (human) (UniProt Q12851); experiment: Caliper, Mobility shift assay off-chip
[3] = molecular target: STK38 (human) (UniProt Q15208); experiment: Caliper, Mobility shift assay off-chip
Sequence of STK38 (human) (Q15208 whole entry, looked up): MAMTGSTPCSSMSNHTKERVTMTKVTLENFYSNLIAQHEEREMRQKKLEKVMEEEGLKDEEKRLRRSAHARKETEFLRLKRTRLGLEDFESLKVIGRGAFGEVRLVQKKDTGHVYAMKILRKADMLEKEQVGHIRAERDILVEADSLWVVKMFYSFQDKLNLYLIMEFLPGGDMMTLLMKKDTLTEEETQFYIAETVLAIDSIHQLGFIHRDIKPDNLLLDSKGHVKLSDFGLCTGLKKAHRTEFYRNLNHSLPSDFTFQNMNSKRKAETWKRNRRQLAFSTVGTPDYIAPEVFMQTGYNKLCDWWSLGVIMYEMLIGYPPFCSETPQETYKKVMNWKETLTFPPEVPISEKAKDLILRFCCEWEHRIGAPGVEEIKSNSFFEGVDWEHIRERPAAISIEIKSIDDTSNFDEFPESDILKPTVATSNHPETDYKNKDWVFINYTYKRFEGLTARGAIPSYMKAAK

[4] = molecular target: INSR (human) (UniProt P06213); experiment: Caliper, Mobility shift assay off-chip
[5] = molecular target: SRPK1 (human) (UniProt Q96SB4); experiment: IMAP-FP
[6] = molecular target: EIF2AK3 (human) (UniProt Q9NZJ5); experiment: IMAP-FP
Sequence of EIF2AK3 (human) (Q9NZJ5 whole entry, looked up): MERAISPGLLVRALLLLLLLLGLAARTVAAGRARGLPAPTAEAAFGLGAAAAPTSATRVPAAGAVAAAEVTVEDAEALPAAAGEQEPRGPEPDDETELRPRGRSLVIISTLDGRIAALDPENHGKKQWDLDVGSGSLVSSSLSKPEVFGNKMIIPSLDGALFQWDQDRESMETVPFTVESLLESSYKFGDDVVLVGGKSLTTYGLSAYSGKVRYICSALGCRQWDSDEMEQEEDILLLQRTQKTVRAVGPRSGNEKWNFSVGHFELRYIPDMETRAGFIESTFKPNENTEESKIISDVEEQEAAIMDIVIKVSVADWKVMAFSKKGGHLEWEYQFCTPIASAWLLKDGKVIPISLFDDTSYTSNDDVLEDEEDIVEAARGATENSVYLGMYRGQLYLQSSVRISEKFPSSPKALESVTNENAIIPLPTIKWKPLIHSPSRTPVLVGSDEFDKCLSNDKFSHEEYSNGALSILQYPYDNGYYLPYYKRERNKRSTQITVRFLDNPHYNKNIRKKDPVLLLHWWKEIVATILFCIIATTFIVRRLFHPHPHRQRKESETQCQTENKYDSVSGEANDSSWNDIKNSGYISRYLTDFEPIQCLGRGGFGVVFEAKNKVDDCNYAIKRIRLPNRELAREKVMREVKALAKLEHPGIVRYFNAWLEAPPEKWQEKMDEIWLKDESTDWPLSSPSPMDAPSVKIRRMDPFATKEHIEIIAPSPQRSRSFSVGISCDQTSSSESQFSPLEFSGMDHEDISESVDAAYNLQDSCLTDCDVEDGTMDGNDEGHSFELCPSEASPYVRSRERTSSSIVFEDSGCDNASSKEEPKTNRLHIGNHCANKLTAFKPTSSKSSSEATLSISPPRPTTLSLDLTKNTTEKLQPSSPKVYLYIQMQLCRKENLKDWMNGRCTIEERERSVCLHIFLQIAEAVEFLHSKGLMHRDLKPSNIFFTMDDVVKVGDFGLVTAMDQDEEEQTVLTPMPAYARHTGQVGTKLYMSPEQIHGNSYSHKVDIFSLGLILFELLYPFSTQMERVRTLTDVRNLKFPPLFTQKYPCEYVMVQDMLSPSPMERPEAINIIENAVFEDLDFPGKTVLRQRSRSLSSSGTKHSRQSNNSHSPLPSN

[7] = molecular target: PKN1 (human) (UniProt Q16512); experiment: IMAP-FP
[8] = molecular target: EIF2AK2 (human) (UniProt P19525); experiment: IMAP-FP
[9] = molecular target: PLK2 (human) (UniProt Q9NYY3); experiment: IMAP-FP
Sequence of PLK2 (human) (Q9NYY3 whole entry, looked up): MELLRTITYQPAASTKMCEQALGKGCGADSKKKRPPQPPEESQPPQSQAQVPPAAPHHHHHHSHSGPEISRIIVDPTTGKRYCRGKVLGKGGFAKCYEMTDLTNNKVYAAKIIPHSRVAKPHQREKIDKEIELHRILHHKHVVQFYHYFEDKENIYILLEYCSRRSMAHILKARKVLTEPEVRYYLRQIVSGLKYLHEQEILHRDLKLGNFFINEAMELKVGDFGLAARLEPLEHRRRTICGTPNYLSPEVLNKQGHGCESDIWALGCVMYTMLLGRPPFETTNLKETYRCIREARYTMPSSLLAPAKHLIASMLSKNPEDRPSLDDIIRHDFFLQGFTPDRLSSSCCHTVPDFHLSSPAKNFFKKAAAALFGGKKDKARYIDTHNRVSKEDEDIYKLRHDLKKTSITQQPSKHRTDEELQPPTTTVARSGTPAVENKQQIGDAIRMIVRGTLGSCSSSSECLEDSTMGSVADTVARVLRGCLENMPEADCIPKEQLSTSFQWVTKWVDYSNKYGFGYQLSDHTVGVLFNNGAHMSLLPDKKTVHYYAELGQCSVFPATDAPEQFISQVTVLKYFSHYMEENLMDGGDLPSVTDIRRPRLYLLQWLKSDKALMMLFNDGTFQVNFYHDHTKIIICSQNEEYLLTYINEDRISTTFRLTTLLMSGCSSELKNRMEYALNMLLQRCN

[10] = molecular target: MAP2K7 (human) (UniProt O14733); experiment: ELISA
[11] = molecular target: MAP3K5 (human) (UniProt Q99683); experiment: ELISA
[12] = molecular target: MAP3K4 (human) (UniProt Q9Y6R4); experiment: ELISA
[13] = molecular target: MAP2K5 (human) (UniProt Q13163); experiment: ELISA
[14] = molecular target: MAP2K6 (human) (UniProt P52564); experiment: ELISA
Sequence of MAP2K6 (human) (P52564 whole entry, looked up): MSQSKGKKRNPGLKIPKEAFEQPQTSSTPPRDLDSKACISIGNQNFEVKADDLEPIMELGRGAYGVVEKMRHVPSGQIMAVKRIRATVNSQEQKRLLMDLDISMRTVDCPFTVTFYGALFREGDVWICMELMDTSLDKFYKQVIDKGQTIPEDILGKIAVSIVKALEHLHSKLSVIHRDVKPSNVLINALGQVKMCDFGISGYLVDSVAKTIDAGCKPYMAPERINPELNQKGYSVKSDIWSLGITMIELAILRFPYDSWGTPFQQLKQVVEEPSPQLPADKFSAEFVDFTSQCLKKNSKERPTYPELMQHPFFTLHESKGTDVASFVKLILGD

[15] = molecular target: BMPR1A (human) (UniProt P36894); experiment: ELISA
[16] = molecular target: WEE1 (human) (UniProt P30291); experiment: ELISA
[17] = molecular target: MAP3K12 (human) (UniProt Q12852); experiment: ELISA
[18] = molecular target: MAP3K3 (human) (UniProt Q99759); experiment: ELISA
[19] = molecular target: MAP2K4 (human) (UniProt P45985); experiment: ELISA
[20] = molecular target: BRAF (human) (UniProt P15056); experiment: ELISA
[21] = molecular target: LIMK1 (human) (UniProt P53667); experiment: ELISA
[22] = molecular target: PLK4 (human) (UniProt O00444); experiment: ELISA
Sequence of PLK4 (human) (O00444 whole entry, looked up): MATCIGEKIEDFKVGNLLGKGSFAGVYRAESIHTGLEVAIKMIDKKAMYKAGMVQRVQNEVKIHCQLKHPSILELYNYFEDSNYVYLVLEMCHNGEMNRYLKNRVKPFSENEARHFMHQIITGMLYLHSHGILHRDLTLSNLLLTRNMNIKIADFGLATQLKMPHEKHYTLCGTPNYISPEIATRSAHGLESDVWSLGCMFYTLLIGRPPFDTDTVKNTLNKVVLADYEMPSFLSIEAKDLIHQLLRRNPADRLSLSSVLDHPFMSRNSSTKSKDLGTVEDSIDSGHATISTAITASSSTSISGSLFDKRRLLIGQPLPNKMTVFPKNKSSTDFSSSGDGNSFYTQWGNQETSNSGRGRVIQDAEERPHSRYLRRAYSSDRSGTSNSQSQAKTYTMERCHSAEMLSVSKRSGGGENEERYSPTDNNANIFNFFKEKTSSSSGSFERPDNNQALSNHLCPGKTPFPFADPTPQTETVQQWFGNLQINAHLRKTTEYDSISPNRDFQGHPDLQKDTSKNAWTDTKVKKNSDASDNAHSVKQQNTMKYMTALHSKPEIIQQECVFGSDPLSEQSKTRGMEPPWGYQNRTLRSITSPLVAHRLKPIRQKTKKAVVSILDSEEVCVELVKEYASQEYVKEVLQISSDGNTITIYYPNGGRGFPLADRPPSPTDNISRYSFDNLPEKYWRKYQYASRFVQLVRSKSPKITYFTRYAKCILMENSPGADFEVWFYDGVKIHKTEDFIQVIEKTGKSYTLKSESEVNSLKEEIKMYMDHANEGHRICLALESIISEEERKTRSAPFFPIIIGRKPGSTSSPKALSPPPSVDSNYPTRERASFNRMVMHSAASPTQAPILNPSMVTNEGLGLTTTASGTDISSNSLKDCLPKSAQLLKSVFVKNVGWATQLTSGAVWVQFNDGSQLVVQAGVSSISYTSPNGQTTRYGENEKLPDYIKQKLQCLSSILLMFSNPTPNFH

[23] = molecular target: MAP3K1 (human) (UniProt Q13233); experiment: ELISA
[24] = molecular target: MAP3K2 (human) (UniProt Q9Y2U5); experiment: ELISA
Sequence of MAP3K2 (human) (Q9Y2U5 whole entry, looked up): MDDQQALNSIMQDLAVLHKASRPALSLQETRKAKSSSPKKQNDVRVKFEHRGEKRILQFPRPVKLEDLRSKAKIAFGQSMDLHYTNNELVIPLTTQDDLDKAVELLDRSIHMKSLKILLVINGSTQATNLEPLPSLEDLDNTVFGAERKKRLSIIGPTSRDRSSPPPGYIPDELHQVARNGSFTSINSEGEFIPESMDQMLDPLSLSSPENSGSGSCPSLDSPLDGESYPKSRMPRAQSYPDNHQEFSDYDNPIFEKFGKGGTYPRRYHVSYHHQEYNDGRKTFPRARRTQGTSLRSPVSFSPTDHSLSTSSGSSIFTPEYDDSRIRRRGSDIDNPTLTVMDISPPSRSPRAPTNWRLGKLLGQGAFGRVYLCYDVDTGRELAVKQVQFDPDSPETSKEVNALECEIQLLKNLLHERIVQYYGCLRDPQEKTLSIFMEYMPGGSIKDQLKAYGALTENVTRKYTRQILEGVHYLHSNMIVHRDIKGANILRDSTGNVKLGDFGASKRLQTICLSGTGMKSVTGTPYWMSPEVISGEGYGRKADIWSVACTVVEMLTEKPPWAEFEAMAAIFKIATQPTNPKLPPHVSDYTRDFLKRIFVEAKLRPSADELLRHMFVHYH

[25] = molecular target: MAP2K3 (human) (UniProt P46734); experiment: ELISA
[26] = molecular target: MAP3K10 (human) (UniProt Q02779); experiment: ELISA
[27] = molecular target: MOS (human) (UniProt P00540); experiment: ELISA
[28] = molecular target: MAP2K2 (human) (UniProt P36507); experiment: ELISA
Sequence of MAP2K2 (human) (P36507 whole entry, looked up): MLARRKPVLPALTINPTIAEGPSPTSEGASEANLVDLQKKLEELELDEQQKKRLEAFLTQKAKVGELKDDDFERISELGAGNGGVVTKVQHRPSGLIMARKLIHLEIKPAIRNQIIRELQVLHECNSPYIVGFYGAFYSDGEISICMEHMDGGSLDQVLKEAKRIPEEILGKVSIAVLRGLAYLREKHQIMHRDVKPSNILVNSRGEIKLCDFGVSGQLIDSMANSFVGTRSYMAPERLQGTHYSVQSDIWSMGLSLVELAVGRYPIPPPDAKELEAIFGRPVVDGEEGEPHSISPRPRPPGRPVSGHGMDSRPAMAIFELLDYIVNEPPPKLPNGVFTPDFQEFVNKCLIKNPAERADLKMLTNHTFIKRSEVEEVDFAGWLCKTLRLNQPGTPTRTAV

[29] = molecular target: MAP3K11 (human) (UniProt Q16584); experiment: ELISA
[30] = molecular target: MAP3K8 (human) (UniProt P41279); experiment: ELISA
[31] = molecular target: STK11 (human) (UniProt Q15831); experiment: ELISA
[32] = molecular target: RAF1 (human) (UniProt P04049); experiment: ELISA
[33] = molecular target: TTK (human) (UniProt P33981); experiment: ELISA
[34] = molecular target: MAP2K1 (human) (UniProt Q02750); experiment: ELISA
Sequence of MAP2K1 (human) (Q02750 whole entry, looked up): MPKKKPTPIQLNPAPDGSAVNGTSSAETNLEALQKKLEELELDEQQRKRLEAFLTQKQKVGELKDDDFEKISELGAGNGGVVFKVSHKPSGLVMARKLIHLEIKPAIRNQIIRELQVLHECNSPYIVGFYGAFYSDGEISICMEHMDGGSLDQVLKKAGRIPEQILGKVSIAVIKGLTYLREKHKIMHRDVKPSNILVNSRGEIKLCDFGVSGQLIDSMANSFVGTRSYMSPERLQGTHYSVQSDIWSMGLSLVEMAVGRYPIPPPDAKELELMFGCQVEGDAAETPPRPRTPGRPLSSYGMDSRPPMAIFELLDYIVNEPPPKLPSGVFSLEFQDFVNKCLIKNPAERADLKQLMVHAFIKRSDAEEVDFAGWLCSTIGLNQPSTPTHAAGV

[35] = molecular target: MAP3K9 (human) (UniProt P80192); experiment: ELISA

inhibition ([1]; compound 0.001 µM): -2% | inhibition ([1]; compound 0.02 µM): 0.9% | inhibition ([2]; compound 0.001 µM): -2.6% | inhibition ([2]; compound 0.02 µM): 4.8% | inhibition ([3]; compound 0.001 µM): 8% | inhibition ([3]; compound 0.02 µM): -1.3% | inhibition ([4]; compound 0.001 µM): -0.3% | inhibition ([4]; compound 0.02 µM): -8.6% | inhibition ([5]; compound 0.001 µM): -6.9% | inhibition ([5]; compound 0.02 µM): -5.3% | inhibition ([6]; compound 0.001 µM): -16.9% | inhibition ([6]; compound 0.02 µM): -10.8% | inhibition ([7]; compound 0.001 µM): -26.9% | inhibition ([7]; compound 0.02 µM): -21.6% | inhibition ([8]; compound 0.001 µM): -26.3% | inhibition ([8]; compound 0.02 µM): -20.8% | inhibition ([9]; compound 0.001 µM): -3% | inhibition ([9]; compound 0.02 µM): 1.7% | inhibition ([10]; compound 0.001 µM): -1.2% | inhibition ([10]; compound 0.02 µM): -3.4% | inhibition ([11]; compound 0.001 µM): -2% | inhibition ([11]; compound 0.02 µM): -2.8% | inhibition ([12]; compound 0.001 µM): -7.9% | inhibition ([12]; compound 0.02 µM): -1.7% | inhibition ([13]; compound 0.001 µM): -15.6% | inhibition ([13]; compound 0.02 µM): -11.8% | inhibition ([14]; compound 0.001 µM): 3.2% | inhibition ([14]; compound 0.02 µM): 2.3% | inhibition ([15]; compound 0.001 µM): -0.4% | inhibition ([15]; compound 0.02 µM): 1.1% | inhibition ([16]; compound 0.001 µM): -2.1% | inhibition ([16]; compound 0.02 µM): 1.5% | inhibition ([17]; compound 0.001 µM): 6.6% | inhibition ([17]; compound 0.02 µM): 4.3% | inhibition ([18]; compound 0.001 µM): 6.6% | inhibition ([18]; compound 0.02 µM): 0.5% | inhibition ([19]; compound 0.001 µM): -0.4% | inhibition ([19]; compound 0.02 µM): -5.7% | inhibition ([20]; compound 0.001 µM): -1.8% | inhibition ([20]; compound 0.02 µM): -4.5% | inhibition ([21]; compound 0.001 µM): 1.5% | inhibition ([21]; compound 0.02 µM): -2.6% | inhibition ([22]; compound 0.001 µM): 23.3% | inhibition ([22]; compound 0.02 µM): 48.9% | inhibition ([23]; compound 0.001 µM): -3.7% | inhibition ([23]; compound 0.02 µM): -3.5% | inhibition ([24]; compound 0.001 µM): -0.4% | inhibition ([24]; compound 0.02 µM): 1.9% | inhibition ([25]; compound 0.001 µM): -2.7% | inhibition ([25]; compound 0.02 µM): -2.2% | inhibition ([26]; compound 0.001 µM): 4.4% | inhibition ([26]; compound 0.02 µM): 2.7% | inhibition ([27]; compound 0.001 µM): -7.5% | inhibition ([27]; compound 0.02 µM): -15.4% | inhibition ([28]; compound 0.001 µM): -7.9% | inhibition ([28]; compound 0.02 µM): 0.1% | inhibition ([29]; compound 0.001 µM): -5.9% | inhibition ([29]; compound 0.02 µM): -7.1% | inhibition ([30]; compound 0.001 µM): -5.7% | inhibition ([30]; compound 0.02 µM): -0.7% | inhibition ([31]; compound 0.001 µM): 1.9% | inhibition ([31]; compound 0.02 µM): 0.2% | inhibition ([32]; compound 0.001 µM): 0.9% | inhibition ([32]; compound 0.02 µM): -3% | inhibition ([33]; compound 0.001 µM): -2.7% | inhibition ([33]; compound 0.02 µM): -3.2% | inhibition ([34]; compound 0.001 µM): 4.3% | inhibition ([34]; compound 0.02 µM): -1.3% | inhibition ([35]; compound 0.001 µM): 1.1% | inhibition ([35]; compound 0.02 µM): 0.1%
SMILES: CNC(=O)c1ccccc1Sc1ccc2c(/C=C/c3ccccn3)n[nH]c2c1

inhibition ([1]; compound 0.02 µM): -6.2% | inhibition ([1]; compound 0.2 µM): -0.1% | inhibition ([2]; compound 0.02 µM): 2.6% | inhibition ([2]; compound 0.2 µM): 18.4% | inhibition ([3]; compound 0.02 µM): 9.6% | inhibition ([3]; compound 0.2 µM): -1.9% | inhibition ([4]; compound 0.02 µM): -0.3% | inhibition ([4]; compound 0.2 µM): -2.4% | inhibition ([5]; compound 0.2 µM): -5.6% | inhibition ([6]; compound 0.02 µM): -18% | inhibition ([6]; compound 0.2 µM): -16.8% | inhibition ([7]; compound 0.02 µM): -35.8% | inhibition ([7]; compound 0.2 µM): -32.5% | inhibition ([8]; compound 0.02 µM): -13.8% | inhibition ([8]; compound 0.2 µM): -6.6% | inhibition ([9]; compound 0.02 µM): -0.9% | inhibition ([9]; compound 0.2 µM): -1.6% | inhibition ([10]; compound 0.02 µM): -6.9% | inhibition ([10]; compound 0.2 µM): -3.5% | inhibition ([11]; compound 0.02 µM): 8.7% | inhibition ([11]; compound 0.2 µM): 4% | inhibition ([12]; compound 0.02 µM): -1.7% | inhibition ([12]; compound 0.2 µM): -6.3% | inhibition ([13]; compound 0.2 µM): -8.2% | inhibition ([14]; compound 0.02 µM): 2.8% | inhibition ([14]; compound 0.2 µM): -5% | inhibition ([15]; compound 0.02 µM): 8.3% | inhibition ([15]; compound 0.2 µM): -7.9% | inhibition ([16]; compound 0.02 µM): -5.4% | inhibition ([16]; compound 0.2 µM): 0.5% | inhibition ([17]; compound 0.02 µM): 8.9% | inhibition ([17]; compound 0.2 µM): 10.3% | inhibition ([18]; compound 0.02 µM): 1.2% | inhibition ([18]; compound 0.2 µM): 2.9% | inhibition ([19]; compound 0.02 µM): 0.9% | inhibition ([19]; compound 0.2 µM): -5.2% | inhibition ([20]; compound 0.2 µM): 2% | inhibition ([21]; compound 0.02 µM): -7.3% | inhibition ([21]; compound 0.2 µM): -7.8% | inhibition ([22]; compound 0.02 µM): 7.6% | inhibition ([22]; compound 0.2 µM): 8.4% | inhibition ([23]; compound 0.02 µM): 1.2% | inhibition ([23]; compound 0.2 µM): -1% | inhibition ([24]; compound 0.02 µM): 1.9% | inhibition ([24]; compound 0.2 µM): 4.4% | inhibition ([25]; compound 0.02 µM): -7.4% | inhibition ([25]; compound 0.2 µM): -2.9% | inhibition ([26]; compound 0.02 µM): 3.6% | inhibition ([26]; compound 0.2 µM): 6% | inhibition ([27]; compound 0.02 µM): 4.2% | inhibition ([27]; compound 0.2 µM): 3.7% | inhibition ([28]; compound 0.02 µM): -4.9% | inhibition ([28]; compound 0.2 µM): -23% | inhibition ([29]; compound 0.02 µM): -1.7% | inhibition ([29]; compound 0.2 µM): -0.3% | inhibition ([30]; compound 0.02 µM): -3.2% | inhibition ([30]; compound 0.2 µM): -1% | inhibition ([31]; compound 0.02 µM): 0.9% | inhibition ([31]; compound 0.2 µM): 19% | inhibition ([32]; compound 0.02 µM): 3.1% | inhibition ([32]; compound 0.2 µM): -1.7% | inhibition ([33]; compound 0.02 µM): -4% | inhibition ([33]; compound 0.2 µM): -2% | inhibition ([34]; compound 0.02 µM): -0.6% | inhibition ([34]; compound 0.2 µM): -2.4% | inhibition ([35]; compound 0.02 µM): 4.9% | inhibition ([35]; compound 0.2 µM): 10.5%
SMILES: COc1cc2c(Oc3ccc4[nH]c(C)cc4c3F)ncnc2cc1OCCCN1CCCC1
